{"source": "patent US20230333087A1", "about": "“METHODS FOR MONITORING PATIENT RESPONSE TO TREATMENT OF RETINAL OXIDATIVE DISEASES” (BioJiva LLC, priority 2022, published 2023)", "key": {"[1]": {"tested_on": "lipid peroxidation in a lipid membrane", "details": "present at 1% fraction of the total PUFAs in a lipid membrane in vitro; cited from earlier work"}, "[2]": {"test": "D-DHA content of neural retina and RPE on 0.25% D-DHA diet by mass spectrometry", "type": "in vivo, C57BL/6J mice", "details": "for % D-substitution: 4 weeks diet + IVT injection + 1 week", "text": "To determine the pharmacokinetics of ocular D-DHA uptake, incorporation and elimination from the neural retina and RPE/choroid/sclera, twelve-week-old C57BL/6J mice were fed a 0.5% D-DHA containing diet (0.5 g D-DHA/100 g food, Table 3) for 77 days followed by an additional 73-day wash-out phase with DHA. At 4 weeks, >55% of the DHA in the retina was D-DHA rising to >60% at 5 weeks (FIG. 6A). At similar time points, D-DHA in the RPE/choroid/sclera was >80%. […] Based on the accretion and elimination data, two-month-old mice were fed with diets containing either D-DHA or natural DHA control for 1 week, 2 weeks, 3 weeks, and 4 weeks before the IVT injection of iron and saline control (FIG. 6B). In order to better approximate typical DHA doses in human prescription omega-3 supplements (e.g. 1,500 mg/day DHA in Lovaza), the D-DHA and DHA experimental mouse diets were adjusted to 0.25% instead of 0.5% for most of the study. On a 0.25% D-DHA diet, retinal D-DHA levels exceeded 50% at five weeks (52.2±1.5% and 55% of total DHA by our GC- and LC- based MS methods, respectively), regardless of whether eyes were injected with iron or control saline (Table 3).\nThe extent to which D-DHA replaced natural DHA was determined by LC/MS by feeding an experimental diet containing 0.25% D-DHA for increasing periods of time. Microdissected samples of neural retina and RPE from mice fed the experimental diet for 4 weeks were analyzed after given IVT iron or control saline, and then continued on the experimental diet for another week. It was confirmed that 22.6% of DHA in the control diet consisted of isotopomers due to natural abundance ^13C and no D-DHA. Therefore, signals from the 327.2/283.2 transition represent 78.4% of the total DHA. The experimental diet contained no detectable natural DHA, but rather a distribution of deuterium-substituted DHA isotopologues (FIGS. 11A-C), which is a consequence of the D-DHA preparation method. After corrections were applied for natural abundance ^13C, it was determined that the D10-DHA isotopologue comprised 45.6% of the D-DHA species in the analyzed sample, with Ds-DHA, D9-DHA, D11-DHA, and D12-DHA isotopologues comprising the balance. Therefore, signals from the 337.2/293.2 transition represented 45.6% of the D-DHA. With these corrections applied, D-DHA isotopologues as a percentage of total DHA (i.e., D-DHA + DHA) was determined to be 59.3-60.8 % in isolated RPE, and 55.0 % in neural retina.\nAdult male wild-type C57BL/6J mice (Stock No.000664, Jackson Labs, Bar Harbor, ME, USA) were housed in standard conditions under cyclic light (12 h:12 h light-dark cycle). Mice had ad libitum access to water and food. Beginning at 2 mo of age, mice were placed on the AIN93G diet described above, supplemented with 0.25% D-DHA or DHA (control diet) for 1 week, 2 weeks, 3 weeks, or 4 weeks prior to the intravitreal injection. Mice were given an intravitreal injection of 1 µl 0.5 mM ferric ammonium citrate diluted in 0.9% NaCl (saline) (MP Biomedicals LLC, Santa Ana, CA) or\nThree types of mass spectrometric analysis were performed to confirm repeatability of results. In the first, lipids were extracted from retinas by a modified Folch method (CHCl3/CH3OH, 2:1). derivatized to fatty acid methyl esters (FAME), and analyzed by high resolution capillary gas chromatography and specialized chemical ionization tandem mass spectrometry. Baseline resolved DHA and D-DHA total ion signal were integrated, and the proportions of D-DHA/total DHA were calculated. The second type of mass spectrometric analysis was performed on samples of the control and experimental diets, as well as microdissected neural retina and RPE from animals on the experimental diet. Lipids were extracted and saponified, and analyzed by ESI-LC/MS on a 4000 QTrap (Sciex) operating in enhanced negative mode over an m/z range of 320 - 345 and a scan rate of 250 /sec. […]"}}}
{"smiles": "[2H]C([2H])(/C=C\\CC)/C=C\\C([2H])([2H])/C=C\\C([2H])([2H])/C=C\\C([2H])([2H])/C=C\\C([2H])([2H])/C=C\\CCC(=O)OCC", "note": "[D-DHA, 6,6,9,9,12,12,15,15,18,18-D10-(4Z,7Z,10Z,13Z,16Z, 19Z)-docosa 4,7,10,13,16, 19-hexaenoic acid ethyl ester]", "values": [{"measurement": "inhibition of LPO in liposomes", "setting": "[1]", "value": "efficiently inhibited the LPO"}, {"measurement": "retinal D-DHA levels (% of total DHA)", "setting": "[2]; 0.25% D-DHA diet, five weeks (4+1), neural retina, LC-based MS method", "value": 55, "unit": "%"}, {"measurement": "retinal D-DHA levels (% of total DHA)", "setting": "[2]; 0.25% D-DHA diet, five weeks, GC-based MS method", "value": "52.2±1.5", "unit": "%"}, {"measurement": "retinal D-DHA levels", "setting": "[2]; 0.25% D-DHA diet, five weeks, iron or saline injected eyes", "value": "exceeded 50%"}, {"measurement": "% D-substitution", "setting": "[2]; RPE cells, D-DHA + Fe", "value": "59.3 ± 3.9", "unit": "%"}, {"measurement": "% D-substitution", "setting": "[2]; RPE cells, D-DHA + saline", "value": "60.8 ± 2.1", "unit": "%"}, {"measurement": "D-DHA isotopologues as a percentage of total DHA", "setting": "[2]; isolated RPE, 0.25% diet, 4+1 weeks, LC/MS", "value": "59.3-60.8%"}, {"measurement": "substitution of DHA with D-DHA in the neural retina", "setting": "[2]; mice fed with D-DHA for 4 weeks", "value": "> 50", "unit": "%"}, {"measurement": "% D-substitution", "setting": "[2]; neural retina, D-DHA + Fe", "value": "55.0 ± 3.3", "unit": "%"}, {"measurement": "% D-substitution", "setting": "[2]; neural retina, D-DHA + saline", "value": "55.0 ± 1.8", "unit": "%"}]}
